According to patent US20080207683A1, “BIARYL-S[…]-PYRAZOLO-PYRIDINE MODULATORS OF CATHEPSIN S” (priority 2007, published 2008):

Biological target: T1, Human CatS (Homo sapiens, UniProt P25774)
T1 construct: made in house; host or cells: Sf9 insect cells (baculovirus vector pFB+HT)
Experiment: CatS inhibition of hydrolysis of fluorescent substrate Z-Val-Val-Arg-AFC
Type: biochemical
Settings: apparent Ki, Morrison equation fit of initial rates; 10 μM Z-Val-Val-Arg-AFC, pH 5.0, 1.5 nM CatS; read-out: CatS Ki^app
Method: Human CatS was cloned into pFB+HT (from Stratagene clone), expressed in Sf9 cells, and purified over a Ni column. Fractions were concentrated and activated at pH 4.0 for 6 hr and then purified over a thiopropylsepharose column and eluted with 1×TBS, 500 mM NaCl, 1 mM EDTA, 25 mM DTT pH 7.6. Glycerol (50%) was added in a 1:1 (vol/vol) ratio (25% glycerol final) and protein was stored at −80° C. in 5 μL aliquots. […] The increase in fluorescence over time was monitored using λexcitation=400 nm and λemission=505 nm.
In equation 1, v is the initial rate measured in the presence of [I]0, the inhibitor concentration, using an enzyme concentration [E]0. v0 is the initial rate measured in the absence of inhibitor.

T1 sequence (P25774 115-331): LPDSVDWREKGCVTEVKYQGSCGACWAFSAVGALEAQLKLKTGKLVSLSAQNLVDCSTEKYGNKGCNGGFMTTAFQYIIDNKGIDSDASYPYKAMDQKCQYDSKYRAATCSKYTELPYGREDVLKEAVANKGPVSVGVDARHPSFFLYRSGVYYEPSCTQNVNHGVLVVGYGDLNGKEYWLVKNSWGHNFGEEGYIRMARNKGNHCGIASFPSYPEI

Row | Ki [nM] | Compound
1 | 712 | COc1ccc(NC(=O)CNC(=O)c2cccc(-c3cc(-c4nn(CCCN5CCCC5)c5c4CN(S(C)(=O)=O)CC5)ccc3Cl)c2)cc1 [Example 26, 2′-Chloro-5′-[5-methanesulfonyl-1-(3-pyrrolidin-1-yl-propyl)-4,5,6,7-tetrahydro-1H-pyrazolo[4,3-c]pyridin-3-yl]-biphenyl-3-carboxylic acid [(4-methoxy-phenylcarbamoyl)-methyl]-amide]
2 | 19.5 | COc1ccc(NCCNC(=O)c2cccc(-c3cc(-c4nn(CCCN5CCC(O)C5)c5c4CN(S(C)(=O)=O)CC5)ccc3Cl)c2)cc1 (stereo not drawn) [Example 28, 2′-Chloro-5′-{1-[3-(3-hydroxy-pyrrolidin-1-yl)-propyl]-5-methanesulfonyl-4,5,6,7-tetrahydro-1H-pyrazolo[4,3-c]pyridin-3-yl}-biphenyl-3-carboxylic acid [2-(4-methoxy-phenylamino)-ethyl]-amide]
3 | 477 | CS(=O)(=O)N1CCc2c(c(-c3ccc(Cl)c(-c4cccc(C(=O)NCc5ncco5)c4)c3)nn2CCCN2CCC(O)C2)C1 (stereo not drawn) [Example 29, 2′-Chloro-5′-{1-[3-(3-hydroxy-pyrrolidin-1-yl)-propyl]-5-methanesulfonyl-4,5,6,7-tetrahydro-1H-pyrazolo[4,3-c]pyridin-3-yl}-biphenyl-3-carboxylic acid (oxazol-2-ylmethyl)-amide]
4 | 325 | CS(=O)(=O)N1CCc2c(c(-c3ccc(Cl)c(-c4cccc(C(=O)NCc5nc6ccccc6s5)c4)c3)nn2CCCN2CCC(O)C2)C1 (stereo not drawn) [Example 30, 2′-Chloro-5′-{1-[3-(3-hydroxy-pyrrolidin-1-yl)-propyl]-5-methanesulfonyl-4,5,6,7-tetrahydro-1H-pyrazolo[4,3-c]pyridin-3-yl}-biphenyl-3-carboxylic acid (benzothiazol-2-ylmethyl)-amide]
5 | 27.3 | COc1ccc(NCCNC(=O)c2cccc(-c3cc(-c4nn(CCCN5CCC(N6CCCC6=O)CC5)c5c4CN(S(C)(=O)=O)CC5)ccc3Cl)c2)cc1 [Example 31, 2′-Chloro-5′-(5-methanesulfonyl-1-{3-[4-(2-oxo-pyrrolidin-1-yl)-piperidin-1-yl]-propyl}-4,5,6,7-tetrahydro-1H-pyrazolo[4,3-c]pyridin-3-yl)-biphenyl-3-carboxylic acid [2-(4-methoxy-phenylamino)-ethyl]-amide]
6 | 264 | CS(=O)(=O)N1CCc2c(c(-c3ccc(Cl)c(-c4cccc(C(=O)NCc5ncco5)c4)c3)nn2CCCN2CCC(N3CCCC3=O)CC2)C1 [Example 32, 2′-Chloro-5′-(5-methanesulfonyl-1-{3-[4-(2-oxo-pyrrolidin-1-yl)-piperidin-1-yl]-propyl}-4,5,6,7-tetrahydro-1H-pyrazolo[4,3-c]pyridin-3-yl)-biphenyl-3-carboxylic acid (oxazol-2-ylmethyl)-amide]
7 | 163 | CS(=O)(=O)N1CCc2c(c(-c3ccc(Cl)c(-c4cccc(C(=O)NCCN5CCc6ccc(F)cc65)c4)c3)nn2CCCN2CCC(N3CCCC3=O)CC2)C1 [Example 33, 2′-Chloro-5′-(5-methanesulfonyl-1-{3-[4-(2-oxo-pyrrolidin-1-yl)-piperidin-1-yl]-propyl}-4,5,6,7-tetrahydro-1H-pyrazolo[4,3-c]pyridin-3-yl)-biphenyl-3-carboxylic acid [2-(6-fluoro-2,3-dihydro-indol-1-yl)-ethyl]-amide]
8 | 72.3 | CS(=O)(=O)N1CCc2c(c(-c3ccc(Cl)c(-c4cccc(C(=O)NCc5nc6ccccc6s5)c4)c3)nn2CCCN2CCC(N3CCCC3=O)CC2)C1 [Example 34, 2′-Chloro-5′-(5-methanesulfonyl-1-{3-[4-(2-oxo-pyrrolidin-1-yl)-piperidin-1-yl]-propyl}-4,5,6,7-tetrahydro-1H-pyrazolo[4,3-c]pyridin-3-yl)-biphenyl-3-carboxylic acid (benzothiazol-2-ylmethyl)-amide]
9 | 123 | Cc1ccc2[nH]c(C(C)NC(=O)c3cccc(-c4cc(-c5nn(CCCN6CCC(N7CCCC7=O)CC6)c6c5CN(S(C)(=O)=O)CC6)ccc4Cl)c3)nc2c1 (stereo not drawn) [Example 35, 2′-Chloro-5′-(5-methanesulfonyl-1-{3-[4-(2-oxo-pyrrolidin-1-yl)-piperidin-1-yl]-propyl}-4,5,6,7-tetrahydro-1H-pyrazolo[4,3-c]pyridin-3-yl)-biphenyl-3-carboxylic acid [1-(5-methyl-1H-benzoimidazol-2-yl)-ethyl]-amide]
10 | 736 | CC(=O)N1CCc2c(c(-c3ccc(Cl)c(-c4cccc(C(=O)N[C@@H](C)CN5CCc6cc(F)ccc65)c4)c3)nn2CCCN2CCCC2)C1 [Example 36, (S)-5′-[5-Acetyl-1-(3-pyrrolidin-1-yl-propyl)-4,5,6,7-tetrahydro-1H-pyrazolo[4,3-c]pyridin-3-yl]-2′-chloro-biphenyl-3-carboxylic acid [2-(5-fluoro-2,3-dihydro-indol-1-yl)-1-methyl-ethyl]-amide]
11 | 38.5 | CC(=O)N1CCc2c(c(-c3ccc(Cl)c(-c4cccc(C(=O)N[C@@H](C)c5nc6cc(F)c(F)cc6[nH]5)c4)c3)nn2CCCN2CCCC2)C1 [Example 37, (S)-5′-[5-Acetyl-1-(3-pyrrolidin-1-yl-propyl)-4,5,6,7-tetrahydro-1H-pyrazolo[4,3-c]pyridin-3-yl]-2′-chloro-biphenyl-3-carboxylic acid [1-(5,6-difluoro-1H-benzoimidazol-2-yl)-ethyl]-amide]
12 | 231 | CC(=O)N1CCc2c(c(-c3ccc(Cl)c(-c4cccc(C(=O)NCc5nc6ccccc6s5)c4)c3)nn2CCCN2CCCC2)C1 [Example 38, 5′-[5-Acetyl-1-(3-pyrrolidin-1-yl-propyl)-4,5,6,7-tetrahydro-1H-pyrazolo[4,3-c]pyridin-3-yl]-2′-chloro-biphenyl-3-carboxylic acid (benzothiazol-2-ylmethyl)-amide]
13 | 37 | CC(=O)N1CCc2c(c(-c3ccc(Cl)c(-c4cccc(C(=O)NC(C)c5nc6cc(C)ccc6[nH]5)c4)c3)nn2CCCN2CCCC2)C1 (stereo not drawn) [Example 39, 5′-[5-Acetyl-1-(3-pyrrolidin-1-yl-propyl)-4,5,6,7-tetrahydro-1H-pyrazolo[4,3-c]pyridin-3-yl]-2′-chloro-biphenyl-3-carboxylic acid [1-(5-methyl-1H-benzoimidazol-2-yl)-ethyl]-amide]
14 | 228 | CC(=O)N1CCc2c(c(-c3ccc(Cl)c(-c4cccc(C(=O)NCCN5CCc6cc(C)ccc65)c4)c3)nn2CCCN2CCCC2)C1 [Example 40, 5′-[5-Acetyl-1-(3-pyrrolidin-1-yl-propyl)-4,5,6,7-tetrahydro-1H-pyrazolo[4,3-c]pyridin-3-yl]-2′-chloro-biphenyl-3-carboxylic acid [2-(5-methyl-2,3-dihydro-indol-1-yl)-ethyl]-amide]
15 | 430 | COc1ccc(CNC(=O)c2cccc(-c3cc(-c4nn(CCCN5CCCC5)c5c4CN(C(C)=O)CC5)ccc3Cl)c2)cc1 [Example 41, 5′-[5-Acetyl-1-(3-pyrrolidin-1-yl-propyl)-4,5,6,7-tetrahydro-1H-pyrazolo[4,3-c]pyridin-3-yl]-2′-chloro-biphenyl-3-carboxylic acid 4-methoxy-benzylamide]
16 | 41.7 | Cc1ccc(NCCNC(=O)c2cccc(-c3cc(-c4nn(CCCN5CCC(O)C5)c5c4CNCC5)ccc3Cl)c2)cc1C (stereo not drawn) [Example 42, 2′-Chloro-5′-{1-[3-(3-hydroxy-pyrrolidin-1-yl)-propyl]-4,5,6,7-tetrahydro-1H-pyrazolo[4,3-c]pyridin-3-yl}-biphenyl-3-carboxylic acid [2-(3,4-dimethyl-phenylamino)-ethyl]-amide]
17 | 48.5 | CC(C)c1ccc(NCCNC(=O)c2cccc(-c3cc(-c4nn(CCCN5CCC(O)C5)c5c4CNCC5)ccc3Cl)c2)cc1 (stereo not drawn) [Example 43, 2′-Chloro-5′-{1-[3-(3-hydroxy-pyrrolidin-1-yl)-propyl]-4,5,6,7-tetrahydro-1H-pyrazolo[4,3-c]pyridin-3-yl}-biphenyl-3-carboxylic acid [2-(4-isopropyl-phenylamino)-ethyl]-amide]
18 | 30.4 | COc1ccc(NCCNC(=O)c2cccc(-c3cc(-c4nn(CCCN5CCC(O)C5)c5c4CNCC5)ccc3Cl)c2)cc1 (stereo not drawn) [Example 44, 2′-Chloro-5′-{1-[3-(3-hydroxy-pyrrolidin-1-yl)-propyl]-4,5,6,7-tetrahydro-1H-pyrazolo[4,3-c]pyridin-3-yl}-biphenyl-3-carboxylic acid [2-(4-methoxy-phenylamino)-ethyl]-amide]
19 | 225 | CN(C)S(=O)(=O)c1cccc2c1N(CCNC(=O)c1cccc(-c3cc(-c4nn(CCCN5CCC(O)C5)c5c4CNCC5)ccc3Cl)c1)CC2 (stereo not drawn) [Example 45, 2′-Chloro-5′-{1-[3-(3-hydroxy-pyrrolidin-1-yl)-propyl]-4,5,6,7-tetrahydro-1H-pyrazolo[4,3-c]pyridin-3-yl}-biphenyl-3-carboxylic acid [2-(7-dimethylsulfamoyl-2,3-dihydro-indol-1-yl)-ethyl]-amide]
20 | 510 | CN(C)S(=O)(=O)c1ccc2c(c1)N(CCNC(=O)c1cccc(-c3cc(-c4nn(CCCN5CCC(O)C5)c5c4CNCC5)ccc3Cl)c1)CC2 (stereo not drawn) [Example 46, 2′-Chloro-5′-{1-[3-(3-hydroxy-pyrrolidin-1-yl)-propyl]-4,5,6,7-tetrahydro-1H-pyrazolo[4,3-c]pyridin-3-yl}-biphenyl-3-carboxylic acid [2-(6-dimethylsulfamoyl-2,3-dihydro-indol-1-yl)-ethyl]-amide]
21 | 53.7 | O=C(NCCNc1ccc(OCC2CCCC2)cc1)c1cccc(-c2cc(-c3nn(CCCN4CCC(O)C4)c4c3CNCC4)ccc2Cl)c1 (stereo not drawn) [Example 47, 2′-Chloro-5′-{1-[3-(3-hydroxy-pyrrolidin-1-yl)-propyl]-4,5,6,7-tetrahydro-1H-pyrazolo[4,3-c]pyridin-3-yl}-biphenyl-3-carboxylic acid [2-(4-cyclopentylmethoxy-phenylamino)-ethyl]-amide]
